Structures can show the parent of a compound that is named as a salt.
Test: not given
Conditions: not given

| SMILES | melting point [°C] |
| --- | --- |
| COc1ccc(C(=O)NCCCCCCCCN)c(O)c1 [Compound 18, N-(2-hydroxy-4-methoxybenzoyl)-1,8-diaminooctane] | 151 to 153 |
| CCN(CC)CCNC(=O)c1cc(Cl)ccc1O (as salt: citrate) [Compound 1, N-[2-(diethylamino)ethyl]-5-chloro-2-hydroxybenzamide Mono-citrate] | 107 to 109 |
| NC(=O)c1ccc(CCCCCCN2CCOCC2)cc1O [Compound 5, 4-(6-morpholin-4-ylhexyl)-salicylamide] | 70 to 73 |
| CN(C)c1ccc(CNC(=O)c2ccccc2O)cc1 [Compound 4, N-(4-dimethylaminobenzyl) salicylamide] | 129 to 132 |
| CCN(CC)CCNC(=O)c1ccccc1O (as salt: citrate) [Compound 3, N-[2-(diethylamino)ethyl]-2-hydroxybenzamide Mono-citrate] | 111 to 113 |

Test: Oral BIBN4096BS Delivery (plasma BIBN4096BS by LC/MS/MS after oral gavage with delivery agent compound)
Conditions: previous studies; baseline (no delivery agent stated)
Experimental: Oral gavage (PO) dosing solutions of delivery agent compound and the Calcitonin gene-related peptide antagonist, 1-Piperidinecarboxamide. […] (BIBN4096BS) in water were prepared. […] The final dosing solutions were prepared by mixing the delivery agent compound with a BIBN4096BS stock solution and diluting to the desired volume (usually 1.0 mL). If necessary, the pH of the mixture was adjusted by the addition of aliquots of aqueous hydrochloric acid solution of an appropriate normality until the final pH of the dosing solution was below 7.0. The final compound amounts per dose were 25 mg/kg of BIBN4096BS, 200 mg/kg of delivery agent compound, in a total volume of 1 mL/kg.
The typical dosing and sampling protocols were as follows. Male Sprague-Dawley rats weighing between 200-250 g were fasted for 24 hours and administered ketamine (44 mg/kg) and chlorpromazine (1.5 mg/kg) 15 minutes prior to dosing. A dosing group of five rats was administered one of the dosing solutions. For oral gavage (PO) dosing, an 11 cm Rusch 8 French catheter was adapted to a 1 mL syringe with a pipette tip. The syringe was filled with dosing solution by drawing the solution through the catheter, which was then wiped dry. […] Plasma BIBN4096BS concentrations were quantified by using a liquid chromatography/mass spectrometry/mass spectrometry assay method using UV detection. […]

| SMILES | baseline values of plasma BIBN4096BS |
| --- | --- |
| NCCCCC(NC(=O)C(Cc1cc(Br)c(O)c(Br)c1)NC(=O)N1CCC(N2Cc3ccccc3NC2=O)CC1)C(=O)N1CCN(c2ccncc2)CC1 (stereo not drawn) [BIBN4096BS, 1-Piperidinecarboxamide. N-[2-[[5-amino-1-[[4-(4-pyridinyl)-1-piperazinyl)carbonyl]pentyl]amino]-1-[(3,5-dibromo-4-hydroxyphenyl)methyl]-2-oxoethyl]-4(1,4-dihydro-2-oxo-3(2H0-quinazolinyl)-.[R-(R*,S*)]] | about 10 ng/mL |
